Assays:
Experiment in all cases: biochemical
Set-up in all cases: KINOMEscan active-site competition binding, percent of control (100 = no competition)
Settings in all cases: competition binding, percent control
[1] = target: PLK2 (Homo sapiens, UniProt Q9NYY3)
[2] = target: PIK3CA(H1047Y) (Homo sapiens, UniProt P42336, H1047Y)
[3] = target: T1, ABL1(F317I)-nonphosphorylated (Homo sapiens, UniProt P00519, F317I)
T1 construct: nonphosphorylated

[4] = target: STK35 (Homo sapiens, UniProt Q8TDR2)
[5] = target: TSSK1B (Homo sapiens, UniProt Q9BXA7)
Sequence of TSSK1B (Q9BXA7 whole entry): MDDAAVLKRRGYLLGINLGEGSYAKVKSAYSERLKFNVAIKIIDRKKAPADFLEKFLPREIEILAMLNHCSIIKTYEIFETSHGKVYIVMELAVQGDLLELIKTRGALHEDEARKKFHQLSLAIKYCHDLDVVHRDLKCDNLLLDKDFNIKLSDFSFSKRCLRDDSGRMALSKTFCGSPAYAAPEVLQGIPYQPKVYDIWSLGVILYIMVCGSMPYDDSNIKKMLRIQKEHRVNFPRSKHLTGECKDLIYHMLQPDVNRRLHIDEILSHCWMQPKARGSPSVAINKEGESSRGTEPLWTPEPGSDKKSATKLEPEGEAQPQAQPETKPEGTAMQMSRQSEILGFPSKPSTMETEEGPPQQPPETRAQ

[6] = target: WEE2 (Homo sapiens, UniProt P0C1S8)
[7] = target: T2, DCAMKL3 (Homo sapiens, UniProt Q9C098)
T2 construct: gene DCLK3

[8] = target: FGFR2 (Homo sapiens, UniProt P21802)
[9] = target: FER (Homo sapiens, UniProt P16591)
Sequence of FER (P16591 whole entry): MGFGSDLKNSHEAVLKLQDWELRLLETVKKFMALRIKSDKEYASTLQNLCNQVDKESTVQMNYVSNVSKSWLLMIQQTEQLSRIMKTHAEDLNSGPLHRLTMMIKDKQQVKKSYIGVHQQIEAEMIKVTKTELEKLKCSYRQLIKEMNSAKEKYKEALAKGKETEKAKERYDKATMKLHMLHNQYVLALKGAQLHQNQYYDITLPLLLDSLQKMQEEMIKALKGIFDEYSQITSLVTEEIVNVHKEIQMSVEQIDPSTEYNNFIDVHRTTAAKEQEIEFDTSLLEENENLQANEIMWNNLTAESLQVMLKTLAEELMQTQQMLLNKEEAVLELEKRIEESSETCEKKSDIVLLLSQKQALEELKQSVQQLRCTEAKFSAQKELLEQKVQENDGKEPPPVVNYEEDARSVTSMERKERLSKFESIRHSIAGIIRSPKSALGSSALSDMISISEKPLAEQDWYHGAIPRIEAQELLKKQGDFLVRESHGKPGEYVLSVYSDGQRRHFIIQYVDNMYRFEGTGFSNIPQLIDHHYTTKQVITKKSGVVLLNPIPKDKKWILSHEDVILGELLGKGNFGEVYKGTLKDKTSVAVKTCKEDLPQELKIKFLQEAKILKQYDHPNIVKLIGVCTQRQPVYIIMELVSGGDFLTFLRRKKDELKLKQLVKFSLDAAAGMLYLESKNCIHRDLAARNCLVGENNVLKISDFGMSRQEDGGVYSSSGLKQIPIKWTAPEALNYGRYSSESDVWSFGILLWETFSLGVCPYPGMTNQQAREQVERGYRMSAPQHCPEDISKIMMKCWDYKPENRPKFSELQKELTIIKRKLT

[10] = target: TTK (Homo sapiens, UniProt P33981)
[11] = target: STK33 (Homo sapiens, UniProt Q9BYT3)
Sequence of STK33 (Q9BYT3 whole entry): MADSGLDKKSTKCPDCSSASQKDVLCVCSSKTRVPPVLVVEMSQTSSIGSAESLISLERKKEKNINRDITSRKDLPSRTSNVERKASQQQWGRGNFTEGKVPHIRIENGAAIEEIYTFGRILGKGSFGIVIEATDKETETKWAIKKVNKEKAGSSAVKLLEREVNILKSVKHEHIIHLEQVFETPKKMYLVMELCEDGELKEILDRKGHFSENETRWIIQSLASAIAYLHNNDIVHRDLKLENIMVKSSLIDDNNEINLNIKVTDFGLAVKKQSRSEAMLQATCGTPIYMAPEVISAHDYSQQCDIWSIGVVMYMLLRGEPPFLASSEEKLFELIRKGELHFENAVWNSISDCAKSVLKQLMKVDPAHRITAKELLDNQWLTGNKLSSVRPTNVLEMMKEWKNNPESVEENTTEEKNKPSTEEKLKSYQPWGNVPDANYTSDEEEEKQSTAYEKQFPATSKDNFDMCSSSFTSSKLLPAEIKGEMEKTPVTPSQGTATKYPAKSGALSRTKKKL

[12] = target: FLT3 (Homo sapiens, UniProt P36888)
[13] = target: NEK11 (Homo sapiens, UniProt Q8NG66)
[14] = target: CDKL1 (Homo sapiens, UniProt Q00532)
[15] = target: CDK3 (Homo sapiens, UniProt Q00526)
Sequence of CDK3 (Q00526 whole entry): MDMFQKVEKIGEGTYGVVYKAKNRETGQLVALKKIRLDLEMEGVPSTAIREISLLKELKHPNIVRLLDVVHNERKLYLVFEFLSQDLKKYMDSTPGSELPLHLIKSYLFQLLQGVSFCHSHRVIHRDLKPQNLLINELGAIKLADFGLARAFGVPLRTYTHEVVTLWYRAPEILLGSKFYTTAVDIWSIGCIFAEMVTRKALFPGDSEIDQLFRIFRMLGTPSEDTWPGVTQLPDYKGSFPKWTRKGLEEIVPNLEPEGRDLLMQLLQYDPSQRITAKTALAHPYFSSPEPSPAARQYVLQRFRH

[16] = target: T3, PFTK1 (Homo sapiens, UniProt O94921)
T3 construct: gene CDK14
T3 sequence (O94921 whole entry): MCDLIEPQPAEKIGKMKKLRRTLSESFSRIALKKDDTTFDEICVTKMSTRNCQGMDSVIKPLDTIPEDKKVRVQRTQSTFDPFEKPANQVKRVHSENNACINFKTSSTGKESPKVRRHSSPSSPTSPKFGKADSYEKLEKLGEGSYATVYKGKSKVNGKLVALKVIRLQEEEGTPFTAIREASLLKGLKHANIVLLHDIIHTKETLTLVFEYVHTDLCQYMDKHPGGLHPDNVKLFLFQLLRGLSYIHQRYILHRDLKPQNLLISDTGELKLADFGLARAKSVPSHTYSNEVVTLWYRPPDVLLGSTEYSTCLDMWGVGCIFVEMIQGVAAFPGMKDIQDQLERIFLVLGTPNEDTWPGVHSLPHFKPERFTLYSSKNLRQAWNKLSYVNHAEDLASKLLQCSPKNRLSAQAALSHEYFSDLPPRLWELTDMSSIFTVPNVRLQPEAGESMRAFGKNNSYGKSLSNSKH

[17] = target: T4, DCAMKL1 (Homo sapiens, UniProt O15075)
T4 construct: gene DCLK1

[18] = target: T5, YSK4 (Homo sapiens, UniProt Q56UN5)
T5 construct: gene MAP3K19

[19] = target: T6, JNK2 (Homo sapiens, UniProt P45984)
T6 construct: gene MAPK9

[20] = target: T7, SgK110 (Homo sapiens, UniProt P0C264)
T7 construct: gene SBK3

[21] = target: MTOR (Homo sapiens, UniProt P42345)
[22] = target: NEK6 (Homo sapiens, UniProt Q9HC98)
[23] = target: DMPK (Homo sapiens, UniProt Q09013)
Sequence of DMPK (Q09013 whole entry): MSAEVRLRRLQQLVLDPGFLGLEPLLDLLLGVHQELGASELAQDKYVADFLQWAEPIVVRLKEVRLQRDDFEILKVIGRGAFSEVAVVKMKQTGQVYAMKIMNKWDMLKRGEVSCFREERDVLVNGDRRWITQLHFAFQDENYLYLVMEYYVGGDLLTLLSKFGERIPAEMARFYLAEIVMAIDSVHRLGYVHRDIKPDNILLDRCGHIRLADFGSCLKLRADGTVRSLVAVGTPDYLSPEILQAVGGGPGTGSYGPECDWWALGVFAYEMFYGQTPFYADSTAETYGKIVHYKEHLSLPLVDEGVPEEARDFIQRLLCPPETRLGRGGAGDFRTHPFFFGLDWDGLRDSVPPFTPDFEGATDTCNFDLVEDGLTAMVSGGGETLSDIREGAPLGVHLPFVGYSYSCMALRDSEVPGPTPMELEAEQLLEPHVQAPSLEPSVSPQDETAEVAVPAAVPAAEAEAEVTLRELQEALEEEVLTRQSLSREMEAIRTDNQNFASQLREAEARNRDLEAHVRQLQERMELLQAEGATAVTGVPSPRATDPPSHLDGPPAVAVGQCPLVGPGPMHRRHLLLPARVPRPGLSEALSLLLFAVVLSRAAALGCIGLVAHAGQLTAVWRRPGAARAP

T1 sequence (P00519 whole entry F317I): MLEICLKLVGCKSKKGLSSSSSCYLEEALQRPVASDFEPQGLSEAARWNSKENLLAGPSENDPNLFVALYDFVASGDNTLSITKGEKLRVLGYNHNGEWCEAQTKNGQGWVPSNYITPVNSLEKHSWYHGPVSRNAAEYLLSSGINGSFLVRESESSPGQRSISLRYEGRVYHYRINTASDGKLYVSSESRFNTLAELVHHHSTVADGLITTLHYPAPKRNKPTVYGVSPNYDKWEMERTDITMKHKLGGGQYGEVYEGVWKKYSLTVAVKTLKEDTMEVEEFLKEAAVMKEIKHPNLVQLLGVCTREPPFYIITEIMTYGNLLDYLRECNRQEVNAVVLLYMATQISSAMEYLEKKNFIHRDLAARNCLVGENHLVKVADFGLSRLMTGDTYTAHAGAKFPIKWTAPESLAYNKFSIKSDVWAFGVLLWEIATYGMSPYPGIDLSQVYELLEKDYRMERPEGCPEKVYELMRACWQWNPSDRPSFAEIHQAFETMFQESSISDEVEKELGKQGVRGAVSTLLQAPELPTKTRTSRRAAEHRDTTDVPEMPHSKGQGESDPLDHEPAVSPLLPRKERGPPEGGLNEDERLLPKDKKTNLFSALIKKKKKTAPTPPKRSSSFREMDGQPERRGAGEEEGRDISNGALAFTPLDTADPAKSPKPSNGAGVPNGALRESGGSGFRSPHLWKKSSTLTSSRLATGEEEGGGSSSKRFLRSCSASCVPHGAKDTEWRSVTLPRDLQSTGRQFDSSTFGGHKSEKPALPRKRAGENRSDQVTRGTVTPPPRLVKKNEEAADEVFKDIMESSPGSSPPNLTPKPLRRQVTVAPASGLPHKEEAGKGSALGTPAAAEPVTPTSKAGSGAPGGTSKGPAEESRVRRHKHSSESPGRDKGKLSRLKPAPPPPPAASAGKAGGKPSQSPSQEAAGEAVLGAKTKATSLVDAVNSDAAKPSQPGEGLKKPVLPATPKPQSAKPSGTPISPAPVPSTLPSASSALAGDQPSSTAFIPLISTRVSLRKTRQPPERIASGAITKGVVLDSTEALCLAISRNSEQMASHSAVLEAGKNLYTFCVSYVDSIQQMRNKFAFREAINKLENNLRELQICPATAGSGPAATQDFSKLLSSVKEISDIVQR
Sequence of PLK2 (Q9NYY3 whole entry): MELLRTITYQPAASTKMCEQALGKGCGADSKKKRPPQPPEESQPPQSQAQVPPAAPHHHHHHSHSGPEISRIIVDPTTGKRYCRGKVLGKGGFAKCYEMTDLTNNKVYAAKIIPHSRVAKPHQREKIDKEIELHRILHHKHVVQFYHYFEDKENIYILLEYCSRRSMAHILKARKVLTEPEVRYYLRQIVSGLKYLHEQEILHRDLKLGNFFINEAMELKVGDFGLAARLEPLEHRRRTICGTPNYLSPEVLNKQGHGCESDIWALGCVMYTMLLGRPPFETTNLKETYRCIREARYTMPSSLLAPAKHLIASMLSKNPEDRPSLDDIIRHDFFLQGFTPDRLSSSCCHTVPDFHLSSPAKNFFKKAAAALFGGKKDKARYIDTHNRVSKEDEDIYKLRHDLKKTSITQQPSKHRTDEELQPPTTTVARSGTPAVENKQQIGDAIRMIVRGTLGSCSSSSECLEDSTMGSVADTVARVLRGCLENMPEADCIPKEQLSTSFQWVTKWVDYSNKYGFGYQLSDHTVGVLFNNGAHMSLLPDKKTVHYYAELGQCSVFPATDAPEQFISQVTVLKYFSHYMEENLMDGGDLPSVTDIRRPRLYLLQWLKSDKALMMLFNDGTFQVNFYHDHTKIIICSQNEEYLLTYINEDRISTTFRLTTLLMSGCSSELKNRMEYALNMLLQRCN

COc1ccc(-c2cnccc2-c2cnc(NC(=O)C(C)C)s2)c(C(F)(F)F)c1 [CRT0105446, N-{5-[3-(4-Methoxy-2-trifluoromethyl-phenyl)-pyridin-4-yl]-hiazol-2-yl}-isobutyramide]
remaining binding at 10 µM [1]: 99% | remaining binding at 10 µM [2]: 94% | remaining binding at 10 µM [3]: 100% | remaining binding at 10 µM [4]: 98% | remaining binding at 10 µM [5]: 80% | remaining binding at 10 µM [6]: 100% | remaining binding at 10 µM [7]: 88% | remaining binding at 10 µM [8]: 100% | remaining binding at 10 µM [9]: 100% | remaining binding at 10 µM [10]: 32% | remaining binding at 10 µM [11]: 100% | remaining binding at 10 µM [12]: 41% | remaining binding at 10 µM [13]: 100% | remaining binding at 10 µM [14]: 80% | remaining binding at 10 µM [15]: 24% | remaining binding at 10 µM [16]: 51% | remaining binding at 10 µM [17]: 46% | remaining binding at 10 µM [18]: 90% | remaining binding at 10 µM [19]: 50% | remaining binding at 10 µM [20]: 100% | remaining binding at 10 µM [21]: 64% | remaining binding at 10 µM [22]: 95% | remaining binding at 10 µM [23]: 100%

Cc1ccc(-c2cnccc2-c2cnc(Nc3ccc(O)cc3)s2)c(Cl)c1 [CRT0105950, 4-{5-[3-(2-Chloro-4-methyl-phenyl)-pyridin-4-yl]-thiazol-2-ylamino}-phenol]
remaining binding at 10 µM [1]: 9% | remaining binding at 10 µM [2]: 93% | remaining binding at 10 µM [3]: 93% | remaining binding at 10 µM [4]: 100% | remaining binding at 10 µM [5]: 100% | remaining binding at 10 µM [6]: 100% | remaining binding at 10 µM [7]: 7.4% | remaining binding at 10 µM [8]: 17% | remaining binding at 10 µM [9]: 57% | remaining binding at 10 µM [10]: 1.7% | remaining binding at 10 µM [11]: 100% | remaining binding at 10 µM [12]: 0.55% | remaining binding at 10 µM [13]: 84% | remaining binding at 10 µM [14]: 77% | remaining binding at 10 µM [15]: 7.7% | remaining binding at 10 µM [16]: 47% | remaining binding at 10 µM [17]: 75% | remaining binding at 10 µM [18]: 53% | remaining binding at 10 µM [19]: 30% | remaining binding at 10 µM [20]: 25% | remaining binding at 10 µM [21]: 35% | remaining binding at 10 µM [22]: 100% | remaining binding at 10 µM [23]: 100%

— paper PMC4770715, “LIM kinase inhibitors disrupt mitotic microtubule organization and impair tumor cell proliferation” (Oncotarget, 2015)
